# Data from patent US8188218B2, “Bi-functional peptides for multiple sclerosis treatment and diagnosis” (priority 2006, dated 2012).
# Like-named read-outs stand apart in the source and are kept apart here. Numbered stars: 1 amine (or outer) side, 2 acyl side, 3 side chain; on linkers, the order of the positions; unused ones are H or OH. Square brackets hold non-standard residues; d marks the D form. Ends that are not written are not given here. Peptide text beside a SMILES is read from it. Eb = biotinyl-PEG-Glu: N-γ-(N-biotinyl-3-(2-(2-(3-aminopropyloxy)-ethoxy)-ethoxy)-propyl)-L-glutamine, O=C(CCCC[C@@H]1SC[C@@H]2NC(=O)N[C@@H]21)NCCCOCCOCCOCCCNC(=O)CC[C@H](N[*:1])C(=O)[*:2]; Ahx = NCCCCCC(=O)O
# What was measured:
# PLP/CFA-immunized mice = test: Anaphylaxis incidence after re-injection of the peptide at day 30
# [1] = system: PLP/CFA-immunized female SJL/J mice; test: Anaphylaxis incidence after injection of the peptide at later phase of disease; type: in vivo, mouse
# Text: The less incidence of inducing anaphylactic shock by BPI molecules was further examined. Female SJL/J mice were immunized with PLP/CFA as above, and injected intravenously with PLP or BPI molecules (100 nmol/mouse) at later phase of the disease (i.e., between day 28 and day 35). […] This was confirmed in another set of experiment, PLP-BPI induced anaphylaxis to 38.5% of treated mice while PLP caused anaphylaxis to more than 80% of treated mice (Table 9, Experiment II). In addition, 100% of mice that were injected with unlinked mixture of PLP and LABL (100 nmol each) died due to anaphylaxis. […] Taken together, BPI molecules (including PLP-BPI and Ac-PLP-BPI-NH2) could suppress EAE more efficiently with lower incidence of inducing anaphylaxis than PLP.
# [2] = system: EAE mouse model (SJL/J female mice immunized with PLP/CFA); type: in vivo; settings: for number of animals that died, Day 10 / number of animals that died, Day 11 / number of animals that died, Day 14 / number of animals that died, Total: 10 mice/group; for toxicity (conclusion from mortality, in words): mouse, in vivo
# Method: To evaluate the in vivo activity of these molecules, SJL/J female mice at 6-8 weeks of age (Jackson Laboratory, Bar Harbor, Me.) were divided into six groups with ten mice in each group. At the initiation state (Day 0), all mice (10/group) were immunized by subcutaneous (s.c.) inoculation with 200 μg of PLP in a 0.2 mL emulsion with equal volumes of phosphate buffered saline (“PBS”) and complete Freund's adjuvant (“CFA”) (Difco, Detroit, Mich.). To enhance immunization with antigen, killed Mycobacterium tuberculosis strain H37RA (Difco) was added to the emulsion at a concentration of 4 mg/mL and administered to regions above the shoulder and the flanks. The injection volume was 50 μL at each injection site. In addition, 200 ng of pertussis toxin (List Biological Laboratories, Campbell, Calif.) was injected intraperitoneally (i.p.) on the day of immunization and 48 hours post-immunization. The onset of disease was on day 8 to day 12 post-immunization. Then, each mouse in Groups 1-4 received intravenous (i.v.) injections of 100 nmole/100 μL of the test peptides (PLP-BPI, PLP139-151, OVA-BPI, LABL) on days 4, 7, 10 and 14. Group 5 animals were injected with PBS on days 4, 7, 10 and 14. Group 6 animals received one i.p. injection of 500 μg PLPL,R on day 7.
# All of the immunized mice were scored blindly 5-6 days/week by the same observer. Mean daily clinical scores were calculated by adding the grades of each mouse individually divided by the number of mice in each group. All animals were observed daily and, upon signs of paralysis and weakness, gel food and Napa nectar were provided to the animals to prevent dehydration. Saline was injected (s.c.) if a weight loss of 10% was observed within a 24-hour period. Body weight and disease scoring started at the onset of the disease (day 8). The measurements were continued daily (5 to 6 days/week) until the end of the disease.
# The statistical analyses of the EAE scores and EAE incidence were done using Mann-Whitney U test and Kaplan-Meier analysis, respectively. The comparison was done between the peptide-treated mice (Groups 1, 2, 3, 4, and 6) and the control group (Group 5) at day 14 post-immunization.
# LS102.9 mouse B-cells = test: Binding of biotin-labeled PLP-BPI to B-cell line, flow cytometry; type: cell-based; settings: 50 μM, 16 hours at 37° C.; FIG. 11(A)
# Text: (each step was followed by washing×3). […] The results are illustrated in FIG. 11.
# [3] = system: T-cell-depleted splenocytes isolated from SJL/J female mice (EAE-induced); settings: 50 μM, 16 hours at 37° C.; FIG. 11(B)
# Text: Binding studies were done using mouse B-lymphocyte line LS102.9 (FIG. 11(A)) and the isolated B-cells from the spleen of female SJL/J mice after induction of EAE (FIG. 11(B)). […] For the isolated spleen cells from EAE mice, the cells were isolated from female SJL/J mice on day 45 post immunization with PLP/CFA, when the clinical disease score for the mice was 0. Lymphocytes were obtained from the spleen cell suspension by centrifugation over Lymphocyte Separation Medium. T-cells were depleted by incubation with anti-CD90 mAb (clone G7) followed by Low-tox rabbit complement. Then, the cells were centrifuged over Lymphocyte Separation Medium to remove dead cells.
# For the binding study, the biotin-labeled peptide (50 μM) was incubated with LS102.9 cells or T-cell-depleted splenocytes (2×10^6 cells) in 0.5% BSA-containing PBS for 16 hours at 37° C., 5% CO2. Following washing×3 with 5% FBS-containing PBS, the cells were incubated with fluorescein Avidin D (15 μg/ml) for 30 min at 4° C. The cells were further stained with biotinylated anti-Avidin D (1 μg/ml) for 60 min at 4° C., and then fluorescein Avidin D (15 μg/ml) for 30 min at 4° C. (each step was followed by washing×3). Finally, the fluorescein intensity of the individual cells was analyzed by flow cytometry.
# EAE mouse model = test: EAE mouse model, PLP-BPI vs mixture of PLP and LABL and VP2-BPI (Example 4); type: in vivo
# Text: To evaluate whether linking PLP and LABL peptides to give PLP-BPI has a significant role on its immunomodulatory activity, the activity of PLP-BPI was compared with that of a mixture of unlinked PLP and LABL peptides at the same concentration. To answer whether any antigenic peptide such as VP2 peptide that is linked to LABL peptide to give VP2-BPI will have immunomodulatory activity similar to that of PLP-BPI, we evaluated the activity of VP2-BPI in the same experiment. VP274-86 is an epitope peptide of Theiler's encephalomyelitis virus capsid protein VP2, and is known to bind to I-A^s. PBS-treated mice were used as the negative control. The experimental protocol was the same as in the previous study (see FIG. 1). Thus, VP2-BPI was used as a control to example to see if the PLP portion of the PLP-BPI is important to therapeutic activity.
# [4] = peptide treatment day 4 (one), re-injection day 30
# [5] = peptide treatment day 4, 7, 10, 14 (four), re-injection day 30
# [6] = Experiment III, 100 nmol/mouse i.v.
# [7] = Experiment I, 100 nmol/mouse i.v. between day 28 and day 35
# [8] = Experiment II, 100 nmol/mouse i.v. (mixture 100 nmol each)
compound,measurement,setting,value
"CC[C@H](C)[C@H](NC(=O)CCCCCNC(=O)CNC(=O)CCCCCNC(=O)CNC(=O)CCCCCNC(=O)[C@H](Cc1ccccc1)NC(=O)[C@H](CCCCN)NC(=O)[C@H](CC(=O)O)NC(=O)[C@@H]1CCCN1C(=O)[C@H](Cc1c[nH]cn1)NC(=O)CNC(=O)[C@H](CC(C)C)NC(=O)[C@H](Cc1c[nH]c2ccccc12)NC(=O)[C@H](CCCCN)NC(=O)CNC(=O)[C@H](CC(C)C)NC(=O)[C@H](CO)NC(=O)[C@H](Cc1c[nH]cn1)NC(C)=O)C(=O)N[C@H](C(=O)N[C@@H](CC(=O)O)C(=O)NCC(=O)N[C@@H](CCC(=O)O)C(=O)N[C@@H](C)C(=O)N[C@H](C(=O)N[C@@H](CC(=O)O)C(=O)N[C@@H](CO)C(=O)NCC(N)=O)[C@@H](C)O)[C@@H](C)O [Ac-PLP-BPI-NH2, Ac-HSLGKWLGHPDKF)-AcGAcGAc-ITDGEATDSG-NH2]",Moribund or death,PLP/CFA-immunized mice; [4],2/6
same,Moribund or death,PLP/CFA-immunized mice; [5],1/6
same,Incidence of anaphylaxis,[1]; [6],43.8%
same,Incidence of anaphylaxis (animals/total),[1]; [6],7/16
"CC[C@H](C)[C@H](N)C(=O)N[C@H](C(=O)N[C@@H](CC(=O)O)C(=O)NCC(=O)N[C@@H](CCC(=O)O)C(=O)N[C@@H](C)C(=O)N[C@H](C(=O)N[C@@H](CC(=O)O)C(=O)N[C@@H](CO)C(=O)NCC(=O)O)[C@@H](C)O)[C@@H](C)O [LABL, ITDGEATDSG]","number of animals that died, Day 10",[2],3
same,"number of animals that died, Day 11",[2],1
same,"number of animals that died, Day 14",[2],0
"CC[C@H](C)[C@H](NC(=O)CCCCCNC(=O)CNC(=O)CCCCCNC(=O)CNC(=O)CCCCCNC(=O)[C@H](C)NC(=O)[C@H](CCC(=O)O)NC(=O)[C@H](CC(N)=O)NC(=O)[C@@H](NC(=O)[C@H](CCC(=O)O)NC(=O)[C@H](C)NC(=O)[C@H](Cc1c[nH]cn1)NC(=O)[C@H](C)NC(=O)[C@H](C)NC(=O)[C@H](Cc1c[nH]cn1)NC(=O)[C@@H](NC(=O)[C@H](C)N)C(C)C)[C@@H](C)CC)C(=O)N[C@H](C(=O)N[C@@H](CC(=O)O)C(=O)NCC(=O)N[C@@H](CCC(=O)O)C(=O)N[C@@H](C)C(=O)N[C@H](C(=O)N[C@@H](CC(=O)O)C(=O)N[C@@H](CO)C(=O)NCC(=O)O)[C@@H](C)O)[C@@H](C)O [OVA-BPI, AVHAAHAEINEA-AcGAcGAc-ITDGEATDSG]","number of animals that died, Day 10",[2],0
same,"number of animals that died, Day 11",[2],0
same,"number of animals that died, Day 14",[2],2
same,"number of animals that died, Total",[2],2
"CC(C)C[C@H](NC(=O)[C@H](Cc1c[nH]c2ccccc12)NC(=O)[C@H](CCCCN)NC(=O)CNC(=O)[C@H](CC(C)C)NC(=O)[C@H](CO)NC(=O)[C@@H](N)Cc1c[nH]cn1)C(=O)NCC(=O)N[C@@H](Cc1c[nH]cn1)C(=O)N1CCC[C@H]1C(=O)N[C@@H](CC(=O)O)C(=O)N[C@@H](CCCCN)C(=O)N[C@@H](Cc1ccccc1)C(=O)O [PLP, HSLGKWLGHPDKF]",Moribund or death,"PLP/CFA-immunized mice; peptide treatment None (PBS) day 4, 7, 10, 14, peptide injection day 30",3/4
same,Incidence of anaphylaxis,[1]; [7],75.0%
same,Incidence of anaphylaxis (animals/total),[1]; [7],9/12
same,Incidence of anaphylaxis (animals/total),[1]; [8],11/13
same,Incidence of anaphylaxis,[1]; [6],76.5%
same,Incidence of anaphylaxis (animals/total),[1]; [6],13/17
same,"number of animals that died, Day 10",[2],0
same,"number of animals that died, Day 11",[2],0
same,"number of animals that died, Day 14",[2],0
same,"number of animals that died, Total",[2],no animals died
same,"number of animals that died, Total",[2]; listed as PLP139-151,0
"CC[C@H](C)[C@H](NC(=O)CCCCCNC(=O)CNC(=O)CCCCCNC(=O)CNC(=O)CCCCCNC(=O)[C@H](Cc1ccccc1)NC(=O)[C@H](CCCCN)NC(=O)[C@H](CC(=O)O)NC(=O)[C@@H]1CCCN1C(=O)[C@H](Cc1c[nH]cn1)NC(=O)CNC(=O)[C@H](CC(C)C)NC(=O)[C@H](Cc1c[nH]c2ccccc12)NC(=O)[C@H](CCCCN)NC(=O)CNC(=O)[C@H](CC(C)C)NC(=O)[C@H](CO)NC(=O)[C@@H](N)Cc1c[nH]cn1)C(=O)N[C@H](C(=O)N[C@@H](CC(=O)O)C(=O)NCC(=O)N[C@@H](CCC(=O)O)C(=O)N[C@@H](C)C(=O)N[C@H](C(=O)N[C@@H](CC(=O)O)C(=O)N[C@@H](CO)C(=O)NCC(=O)O)[C@@H](C)O)[C@@H](C)O [PLP-BPI, HSLGKWLGHPDKF-AcGAcGAc-ITDGEATDSG]",Moribund or death,PLP/CFA-immunized mice; [4],3/6
same,Moribund or death,PLP/CFA-immunized mice; [5],1/6
same,Incidence of anaphylaxis,[1]; [7],35.7%
same,Incidence of anaphylaxis (animals/total),[1]; [7],5/14
same,Incidence of anaphylaxis,[1]; [8],38.5%
same,Incidence of anaphylaxis (animals/total),[1]; [8],5/13
same,"number of animals that died, Day 10",[2],0
same,"number of animals that died, Day 11",[2],0
same,"number of animals that died, Day 14",[2],0
same,"toxicity (conclusion from mortality, in words)",[2],low toxicity
"CC(C)C[C@H](NC(=O)[C@H](CC(C)C)NC(=O)[C@H](CCCCN)NC(=O)CNC(=O)[C@H](CC(C)C)NC(=O)[C@H](CO)NC(=O)[C@@H](N)Cc1c[nH]cn1)C(=O)NCC(=O)N[C@@H](CCCNC(=N)N)C(=O)N1CCC[C@H]1C(=O)N[C@@H](CC(=O)O)C(=O)N[C@@H](CCCCN)C(=O)N[C@@H](Cc1ccccc1)C(=O)O [PLPL,R, HSLGKLLGRPDKF] (H-HSLGKLLGRPDKF-OH)","number of animals that died, Day 10",[2],0
same,"number of animals that died, Day 11",[2],5
same,"number of animals that died, Day 14",[2],1
same,"toxicity (conclusion from mortality, in words)",[2],severe effect (toxicity)
EbHSLGKWLGHPDKF-AcGAcGAc-ITDGEATDSG ([Eb]HSLGKWLGHPDKF[Ahx]G[Ahx]G[Ahx]ITDGEATDSG) [B-PLP-BPI],binding to LS102.9 B-cell line (in words),LS102.9 mouse B-cells,binds to LS102.9 B-cell line
same,binding to B-cells from the spleen of EAE-induced mice (in words),[3],can also bind to the B-cells from the spleen of EAE-induced mice
QEAFSHIRIPLPH-AcGAcGAc-ITDGEATDSG (QEAFSHIRIPLPH[Ahx]G[Ahx]G[Ahx]ITDGEATDSG; listed as Homo sapiens) [VP2-BPI],disease incidence,"EAE mouse model; after day 17, FIG. 8(B)",100%
same,loss of body weight (in words),"EAE mouse model; around day 14, FIG. 8(C)",greatest in PBS-treated mice followed by VP2-BPI-treated mice
